# Data as given in ChEMBL document CHEMBL1132959, “Design of potent dicyclic (1-5/4-10) gonadotropin releasing hormone (GnRH) antagonists” (J Med Chem, 2000).
# What was measured:
# Rattus norvegicus [1] = species: Rattus norvegicus; assay: Antiovulatory potency at 5 ug/rat expressed as rats ovulating by total no. of rats (1/7); format: functional
# Rattus norvegicus [2] = species: Rattus norvegicus; assay: Antiovulatory potency at 10 ug/rat expressed as rats ovulating by total no. of rats (0/6); format: functional
# Rattus norvegicus [3] = species: Rattus norvegicus; assay: Antiovulatory potency at 2.5 ug/rat expressed as rats ovulating by total no. of rats (2/8); format: functional
# [4] = molecular target: T1, Gonadotropin-releasing hormone receptor (Rattus norvegicus, UniProt P30969); assay: Affinity for rat gonadotrophin releasing hormone (GnRH) receptor using HEK293 cells transfected with rat Gonadotropin-releasing hormone receptor; format: cell-based; details: hek293
# T1 sequence (P30969 whole entry): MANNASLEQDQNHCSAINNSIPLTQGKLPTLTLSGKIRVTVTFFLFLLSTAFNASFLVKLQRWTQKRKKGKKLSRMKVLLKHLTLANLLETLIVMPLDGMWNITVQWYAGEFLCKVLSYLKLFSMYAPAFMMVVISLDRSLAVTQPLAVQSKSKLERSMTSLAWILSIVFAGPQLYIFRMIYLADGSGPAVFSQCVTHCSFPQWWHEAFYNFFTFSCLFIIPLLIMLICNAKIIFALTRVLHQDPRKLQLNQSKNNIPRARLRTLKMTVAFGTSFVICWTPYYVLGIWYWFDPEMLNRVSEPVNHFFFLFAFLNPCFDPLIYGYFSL
# Rattus norvegicus [5] = species: Rattus norvegicus; assay: Antiovulatory potency at 500 ug/rat expressed as rats ovulating by total no. of rats (5/7); format: functional
# Rattus norvegicus [6] = species: Rattus norvegicus; assay: Antiovulatory potency at 250 ug/rat expressed as rats ovulating by total no. of rats (0/5); format: functional
# Rattus norvegicus [7] = species: Rattus norvegicus; assay: Antiovulatory potency at 100 ug/rat expressed as rats ovulating by total no. of rats (5/5); format: functional
# Rattus norvegicus [8] = species: Rattus norvegicus; assay: Antiovulatory potency at 50 ug/rat expressed as rats ovulating by total no. of rats (0/5); format: functional
# Rattus norvegicus [9] = species: Rattus norvegicus; assay: Antiovulatory potency at 25 ug/rat expressed as rats ovulating by total no. of rats (3/7); format: functional
# Rattus norvegicus [10] = species: Rattus norvegicus; assay: Antiovulatory potency at 10 ug/rat expressed as rats ovulating by total no. of rats (5/5); format: functional
# Rattus norvegicus [11] = species: Rattus norvegicus; assay: Antiovulatory potency at 5 ug/rat expressed as rats ovulating by total no. of rats (0/5); format: functional
# Rattus norvegicus [12] = species: Rattus norvegicus; assay: Antiovulatory potency at 2.5 ug/rat expressed as rats ovulating by total no. of rats (4/16); format: functional
# Rattus norvegicus [13] = species: Rattus norvegicus; assay: Antiovulatory potency at 1 ug/rat expressed as rats ovulating by total no. of rats (5/7); format: functional
compound,measurement,setting,value
CC(=O)N[C@@H]1CCC(=O)NCC(=O)NCC[C@H]2NC(=O)[C@@H](CC(=O)NC[C@H](C(N)=O)NC(=O)[C@H]3CCCN3C(=O)[C@H](CCCN=C(N)N)NC(=O)[C@@H](CC(C)C)NC(=O)[C@@H](Cc3ccc4ccccc4c3)NC2=O)NC(=O)[C@@H](Cc2c[nH]c3ccccc23)NC(=O)[C@H](Cc2ccc(Cl)cc2)NC1=O,Ovulating rats,Rattus norvegicus [1],1
same,Ovulating rats,Rattus norvegicus [2],0
same,Ovulating rats,Rattus norvegicus [3],2
CC(=O)N[C@H](Cc1ccc2ccccc2c1)C(=O)N[C@H]1CSSC[C@@H]2NC(=O)[C@H](Cc3ccc(O)cc3)NC(=O)[C@H](CC(=O)NC[C@@H](C(N)=O)NC(=O)[C@@H]3CCCN3C(=O)[C@H](CCCN=C(N)N)NC(=O)[C@H](CC(C)C)NC2=O)NC(=O)[C@@H](Cc2c[nH]c3ccccc23)NC1=O,Ki,[4],13 nM
same,Ovulating rats,Rattus norvegicus [5],5
CC(=O)N[C@H](Cc1ccc2ccccc2c1)C(=O)N[C@H](Cc1ccc(Cl)cc1)C(=O)N[C@@H]1CC(=O)NCCC[C@@H](C(=O)N2CCC[C@H]2C(=O)N[C@H](C)C(N)=O)NC(=O)[C@H](CC(C)C)NC(=O)[C@@H](Cc2ccc3ccccc3c2)NC(=O)[C@H](CCCN=C(N)N)NC(=O)[C@H](C)NC1=O,Ovulating rats,Rattus norvegicus [6],0
same,Ovulating rats,Rattus norvegicus [7],5
CC(=O)N[C@H](Cc1ccc2ccccc2c1)C(=O)N[C@H](Cc1ccc(Cl)cc1)C(=O)N[C@@H]1CC(=O)NCCCC[C@@H](C(=O)N2CCC[C@H]2C(=O)N[C@H](C)C(N)=O)NC(=O)[C@H](CC(C)C)NC(=O)[C@@H](Cc2ccc3ccccc3c2)NC(=O)[C@H](CCCN=C(N)N)NC(=O)[C@H](C)NC1=O,Ovulating rats,Rattus norvegicus [8],0
same,Ovulating rats,Rattus norvegicus [9],3
same,Ovulating rats,Rattus norvegicus [10],5
CC(=O)N[C@H]1CC(=O)NCC(=O)NCC[C@@H]2NC(=O)[C@H](CC(=O)NC[C@@H](C(N)=O)NC(=O)[C@@H]3CCCN3C(=O)[C@H](CCCN=C(N)N)NC(=O)[C@H](CC(C)C)NC(=O)[C@@H](Cc3ccc4ccccc4c3)NC2=O)NC(=O)[C@@H](Cc2c[nH]c3ccccc23)NC(=O)[C@@H](Cc2ccc(Cl)cc2)NC1=O,Ovulating rats,Rattus norvegicus [11],0
same,Ovulating rats,Rattus norvegicus [12],4
same,Ovulating rats,Rattus norvegicus [13],5
